Molecular target: T1, CpTopIB (Cryptosporidium parvum, UniProt Q5CY81)
T1 construct: gene cgd7_3350; expressed from YCpGAL in S. cerevisiae EKY3 (top1 deleted), purified on phosphocellulose and phenyl-sepharose; monomer; no tag mentioned
T1 sequence (Q5CY81 13-653): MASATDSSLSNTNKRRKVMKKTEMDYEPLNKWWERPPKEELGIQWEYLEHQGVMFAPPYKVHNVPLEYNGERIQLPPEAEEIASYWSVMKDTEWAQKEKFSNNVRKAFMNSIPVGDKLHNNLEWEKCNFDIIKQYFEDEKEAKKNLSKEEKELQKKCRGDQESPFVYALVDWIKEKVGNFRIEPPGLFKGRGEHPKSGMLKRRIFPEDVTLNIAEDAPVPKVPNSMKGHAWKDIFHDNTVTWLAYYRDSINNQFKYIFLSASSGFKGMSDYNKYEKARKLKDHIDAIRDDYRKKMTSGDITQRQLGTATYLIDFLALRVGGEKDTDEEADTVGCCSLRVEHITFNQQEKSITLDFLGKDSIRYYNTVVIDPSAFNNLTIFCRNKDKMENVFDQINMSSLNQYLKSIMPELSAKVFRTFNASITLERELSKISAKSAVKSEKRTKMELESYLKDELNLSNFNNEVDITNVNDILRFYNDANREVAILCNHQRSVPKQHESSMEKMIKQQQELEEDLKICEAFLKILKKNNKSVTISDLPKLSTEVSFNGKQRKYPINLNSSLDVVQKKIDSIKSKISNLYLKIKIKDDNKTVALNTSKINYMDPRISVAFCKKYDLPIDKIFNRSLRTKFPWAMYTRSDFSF
Experiment: DNA cleavage assay, nicked DNA on agarose gel
Format: biochemical
Details: supercoiled phiX174 RF I DNA, pH 7.5, 50 mM KCl, 1% DMSO, 30 or 37°C; stabilises the enzyme-DNA cleavable complex

| SMILES | nicked-DNA increase at 10 and 100 μM |
| --- | --- |
| CC[C@@]1(O)C(=O)OCc2c1cc1n(c2=O)Cc2cc3ccccc3nc2-1 [CPT, camptothecin] | There is a dose-dependent nicked-DNA increase for CPT and topotecan |
| CC[C@@]1(O)C(=O)OCc2c1cc1n(c2=O)Cc2cc3c(CN(C)C)c(O)ccc3nc2-1 [topotecan] | There is a dose-dependent nicked-DNA increase for CPT and topotecan |

— article PMC2716488, “Functional Expression of a DNA-Topoisomerase IB from Cryptosporidium parvum” (Journal of Biomedicine and Biotechnology, 2009)
